Measurements from patent US20240009150A1, “CAPSAICYNS IN THE TREATMENT OF LEAKY GUT” (AXICHEM AB [SE]/[SE], priority 2020, published 2024).

System: Salmonella enterica subsp. enterica serovar Paratyphi C (ATCC® BAA1714™)
Experiment: Inhibition of biofilm formation with different capsaicyn compounds, crystal violet staining assay (Example 6)
Format: cell-based
Settings: for Biofilm (OD 595 nm): 24 hr, 30° C.
Protocol: Biofilm formation was quantified with modifications using the method described by Stepanovic et al. (Journal of Microbiological Methods, 2000, 40(2), 175-19) with modifications. Using a 96-well microplate duplicate the test solutions were filled at the above selected doses. Cultures were grown for 18 hr in LB at 30° C. and adjusted to OD 0.1 at 600 nm. 20 μL of the culture were added into each well and the remainder of the volume to 200 μL per well was filled with LB. Unused external wells were filled with 200 μL of sterile water to prevent evaporation.
After 24 hr of incubation, supernatants were discarded, and the wells were washed three times with 200 μL of sterile phosphate buffered saline (PBS). Bacteria adhered to the wells were fixed with 200 μL of methanol for 15 min, the methanol was discarded, and the plates dried at 25° C.
Each well was stained with 200 μL of 0.3% (w/v) crystal violet solution for 5 min at 25° C. Crystal violet excess was pipetted out, and the wells were rinsed five times with sterile PBS. 200 μL of 33% (v/v) glacial acetic acid were added to the wells for 30 min to solubilise the dye adhered to the cell walls. Optical density (OD) was measured at 595 nm using a microplate spectrophotometer as a direct measure of biofilm formation. P. aeruginosa in 3% DMSO will be used as the negative control.
A stock solution of 500 μg of phenylcapsaicin, capsaicin, compound a, compound b, compound c, was prepared by dissolving 500 μg in 100 μl of ethanol and 900 μl of sterile water. The stock solutions were sequentially diluted with quadruple volumes of solvent (10% aqueous ethanol solution) to yield 125/31.25 (32)/7.81 (8)/1.95 (2) μg/ml test solutions.
ATCC® BAA1714™ was used to determine the biofilm inhibition activity. Inducer N-hexanoyl homoserine lactone (C6-HSL) was purchased from Sigma-Aldrich. ATCC® BAA1714™ was cultivated in Luria-Bertani (LB) medium (LB, 5 g yeast extract, 10 g tryptone, 5 g NaCl, 1 L water) at 37° C. overnight under aerobic conditions.
Crystal violet staining assay was performed as in Experiment 3, using ATCC® BAA1714™ in 3% DMSO as the control.

[1] = any dose tested (125, 32, 8, 2 μg/ml)

SMILES | Biofilm (OD 595 nm) (2 μg/mL) | Biofilm (OD 595 nm) (8 μg/mL) | Biofilm (OD 595 nm) (32 μg/mL) | Biofilm (OD 595 nm) (125 μg/mL) | biofilm formation inhibition activity, in words [1] | biofilm formation inhibition activity relative to the activity of phenylcapsaicin (2 μg/ml dose) | biofilm formation inhibition activity, in words (2 μg/ml dose)
COc1cc(CNC(=O)CCCCC#CC(C)(C)C)ccc1O [compound b] | 8.1 OD 595 nm | 7.9 OD 595 nm | 8.2 OD 595 nm | 8.8 OD 595 nm | did not show biofilm formation inhibition activity |  | 
COc1cc(CNC(=O)CCCCC#CC2CCCCC2)ccc1O [compound a] | 6.5 OD 595 nm | 6.8 OD 595 nm | 7.1 OD 595 nm | 8.2 OD 595 nm |  | ~33% | modest biofilm formation inhibition activity
COc1cc(CNC(=O)CCCCC#CC(C)(C)C)ccc1OC(C)=O [compound c] | 8.0 OD 595 nm | 8.6 OD 595 nm | 8.5 OD 595 nm | 8.7 OD 595 nm | did not show biofilm formation inhibition activity |  | 
